From ChEMBL document CHEMBL3091310, “Pseudo-cyclization through intramolecular hydrogen bond enables discovery of pyridine substituted pyrimidines as new Mer kinase inhibitors” (J Med Chem, 2013)

Legend:
[1] = target: T1, Tyrosine-protein kinase receptor UFO (Homo sapiens, UniProt P30530)
T1 sequence (P30530 whole entry): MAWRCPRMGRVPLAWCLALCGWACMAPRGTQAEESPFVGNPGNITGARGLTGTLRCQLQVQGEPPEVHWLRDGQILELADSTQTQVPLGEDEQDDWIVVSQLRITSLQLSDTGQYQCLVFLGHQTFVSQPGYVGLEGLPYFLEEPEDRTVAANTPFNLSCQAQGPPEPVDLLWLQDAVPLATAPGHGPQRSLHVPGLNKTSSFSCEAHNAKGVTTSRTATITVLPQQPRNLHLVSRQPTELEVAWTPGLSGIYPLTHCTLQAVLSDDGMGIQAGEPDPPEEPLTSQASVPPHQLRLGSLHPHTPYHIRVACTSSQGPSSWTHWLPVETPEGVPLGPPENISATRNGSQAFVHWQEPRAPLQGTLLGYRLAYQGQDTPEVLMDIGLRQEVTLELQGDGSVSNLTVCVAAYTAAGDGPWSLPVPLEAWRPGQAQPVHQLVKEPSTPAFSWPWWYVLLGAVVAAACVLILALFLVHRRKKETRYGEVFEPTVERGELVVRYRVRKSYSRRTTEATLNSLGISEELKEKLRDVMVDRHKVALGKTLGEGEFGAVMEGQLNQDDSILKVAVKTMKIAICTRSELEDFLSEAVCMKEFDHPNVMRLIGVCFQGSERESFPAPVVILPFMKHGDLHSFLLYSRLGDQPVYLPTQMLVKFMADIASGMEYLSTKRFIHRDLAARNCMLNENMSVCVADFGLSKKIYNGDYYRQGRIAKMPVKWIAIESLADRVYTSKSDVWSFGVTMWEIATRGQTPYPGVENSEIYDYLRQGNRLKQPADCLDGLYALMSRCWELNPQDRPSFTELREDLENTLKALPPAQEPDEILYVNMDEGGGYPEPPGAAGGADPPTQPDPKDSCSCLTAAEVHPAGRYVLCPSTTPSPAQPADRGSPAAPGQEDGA

[2] = target: T2, Tyrosine-protein kinase receptor TYRO3 (Homo sapiens, UniProt Q06418)
T2 sequence (Q06418 whole entry): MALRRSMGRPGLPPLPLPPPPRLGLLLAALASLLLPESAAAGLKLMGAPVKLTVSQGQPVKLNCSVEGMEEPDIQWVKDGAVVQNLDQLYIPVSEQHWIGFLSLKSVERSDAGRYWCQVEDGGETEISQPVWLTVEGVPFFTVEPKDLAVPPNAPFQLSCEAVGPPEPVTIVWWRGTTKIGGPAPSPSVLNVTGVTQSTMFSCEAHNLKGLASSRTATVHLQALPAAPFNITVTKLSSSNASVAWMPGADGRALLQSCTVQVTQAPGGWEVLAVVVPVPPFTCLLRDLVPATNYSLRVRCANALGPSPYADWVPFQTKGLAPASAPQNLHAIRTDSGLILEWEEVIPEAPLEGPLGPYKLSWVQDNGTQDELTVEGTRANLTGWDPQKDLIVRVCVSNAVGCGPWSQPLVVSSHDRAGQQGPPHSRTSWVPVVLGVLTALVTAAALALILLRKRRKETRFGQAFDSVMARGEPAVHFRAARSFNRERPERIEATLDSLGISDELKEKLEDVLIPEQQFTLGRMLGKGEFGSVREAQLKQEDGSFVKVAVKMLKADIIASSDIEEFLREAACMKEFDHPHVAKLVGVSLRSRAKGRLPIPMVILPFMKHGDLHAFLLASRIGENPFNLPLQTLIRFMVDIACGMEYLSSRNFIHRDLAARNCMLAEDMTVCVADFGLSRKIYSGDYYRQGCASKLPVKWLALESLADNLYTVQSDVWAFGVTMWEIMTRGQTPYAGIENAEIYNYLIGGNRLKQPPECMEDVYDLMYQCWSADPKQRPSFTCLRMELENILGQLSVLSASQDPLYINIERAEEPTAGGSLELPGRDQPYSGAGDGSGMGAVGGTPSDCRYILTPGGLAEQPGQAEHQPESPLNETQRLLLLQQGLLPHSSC

[3] = in vivo; conditions: mouse, iv, 3 mg/kg
[4] = in vivo; conditions: mouse, iv, 3 mg/kg; remark: listed apart in the source
[5] = in vivo; conditions: mouse, po, 3 mg/kg
[6] = species on record: Mus musculus; conditions: in vivo, po, 3 mg/kg
[7] = in vivo; conditions: mouse, iv, 3 mg/kg; remark: listed apart in the source
[8] = in vivo; conditions: mouse, iv, 3 mg/kg; remark: listed apart in the source
[9] = in vivo; conditions: mouse, po, 3 mg/kg; remark: listed apart in the source
[10] = in vivo; conditions: mouse, iv, 3 mg/kg; remark: listed apart in the source
[11] = in vivo; conditions: mouse, po, 3 mg/kg; remark: listed apart in the source

Row | Structure (SMILES) | IC50 [1] | IC50 [2] | half-life [3] | Cmax [4] | AUC(0-t) [5] | F [6] | clearance [7] | AUC(0-t) [8] | Tmax [9] | Vd [10] | Cmax [11]
1 | CSc1ncc(-c2ccccn2)c(N[C@H]2CC[C@H](O)CC2)n1 | > 30 µM | > 30 µM | – | – | – | – | – | – | – | – | –
2 | O[C@H]1CC[C@H](Nc2nc(NCc3ccccc3)ncc2-c2ccccn2)CC1 | > 30 µM | – | – | – | – | – | – | – | – | – | –
3 | CCCCNc1ncc(-c2ccc(S(=O)(=O)N3CCOCC3)cn2)c(N[C@H]2CC[C@H](O)CC2)n1 | – | – | 54.6 min | 1980 ng/mL | 4.68 ng·h/mL | 1.3% | 134 mL/min/kg | 355 ng·h/mL | 15 min | 2.9 L/kg | 13.9 ng/mL
4 | CCCCNc1nccc(N[C@H]2CC[C@H](O)CC2)n1 | > 30 µM | > 30 µM | – | – | – | – | – | – | – | – | –

The next lines start with the values.

Row | IC50 [1] | IC50 [2] | half-life [3] | Cmax [4] | AUC(0-t) [5] | F [6] | clearance [7] | AUC(0-t) [8] | Tmax [9] | Vd [10] | Cmax [11] | Structure (SMILES)
5 | – | – | 178 min | 737 ng/mL | 210 ng·h/mL | 55% | 123 mL/min/kg | 381 ng·h/mL | 15 min | 13.7 L/kg | 71 ng/mL | CCCCNc1ncc(-c2ccc(CN3CCC(F)(F)CC3)cn2)c(N[C@H]2CC[C@H](O)CC2)n1
6 | – | – | 283 min | 277 ng/mL | 103 ng·h/mL | 27% | 130 mL/min/kg | 376 ng·h/mL | 30 min | 39 L/kg | 33 ng/mL | CCCCNc1ncc(-c2ccc(CNC3CC3)cn2)c(N[C@H]2CC[C@H](O)CC2)n1
7 | – | > 30 µM | – | – | – | – | – | – | – | – | – | CCCCNc1ncc(-c2ccc(F)cc2)c(N[C@H]2CC[C@H](O)CC2)n1
8 | – | – | 95.4 min | 1980 ng/mL | 180 ng·h/mL | 23% | 62.2 mL/min/kg | 794 ng·h/mL | 15 min | 3.9 L/kg | 162 ng/mL | CCCCNc1ncc(-c2ccc(CN3CCOCC3)cn2)c(N[C@H]2CC[C@H](O)CC2)n1
